Data published in PubChem BioAssay (NCI).
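The compound was tested at five concentrations on cells cultured in 96-well plates, with a 48-hour exposure period. At the GI50, growth is halved. TGI: concentration producing complete growth inhibition.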

Experiments:
Experiment in all cases: inhibition of tumour cell growth, NCI panel, 48 h
[1] = tested on: NCI-H226 lung
[2] = tested on: OVCAR-4 ovarian
[3] = tested on: A549 NSCLC
[4] = tested on: 786-0 renal
[5] = tested on: SK-MEL-5 melanoma
[6] = tested on: DU-145 prostate
[7] = tested on: IGROV1 ovarian
[8] = tested on: HOP-92 NSCLC
[9] = tested on: NCI-H460 lung
[10] = tested on: CCRF-CEM leukemia
[11] = tested on: OVCAR-5 ovarian
[12] = tested on: HS 578T breast
[13] = tested on: SK-OV-3 ovarian
[14] = tested on: NCI-H23 lung
[15] = tested on: SN12C renal
[16] = tested on: CAKI-1 renal
[17] = tested on: SF-539 CNS
[18] = tested on: TK-10 renal
[19] = tested on: NCI-H522 lung
[20] = tested on: RXF 393 renal
[21] = tested on: LOX IMVI melanoma
[22] = tested on: HOP-62 NSCLC
[23] = tested on: U251 CNS
[24] = tested on: MOLT-4 leukemia
[25] = tested on: SK-MEL-28 melanoma
[26] = tested on: HT29 colon
[27] = tested on: OVCAR-3 ovarian
[28] = tested on: M14 melanoma
[29] = tested on: KM12 colon
[30] = tested on: UACC-62 melanoma
[31] = tested on: T-47D breast
[32] = tested on: SW-620 colon
[33] = tested on: MDA-MB-231 breast
[34] = tested on: SF-268 CNS
[35] = tested on: MALME-3M melanoma
[36] = tested on: OVCAR-8 ovarian
[37] = tested on: PC-3 prostate
[38] = tested on: UO-31 renal
[39] = tested on: SR leukemia
[40] = tested on: ACHN renal
[41] = tested on: SK-MEL-2 melanoma
[42] = tested on: MDA-MB-435
[43] = tested on: A498 renal
[44] = tested on: NCI/ADR-RES ovarian
[45] = tested on: UACC-257 melanoma
[46] = tested on: SF-295 CNS
[47] = tested on: SNB-75 CNS
[48] = tested on: K-562 leukemia
[49] = tested on: HL-60(TB) leukemia
[50] = tested on: MCF7 breast
[51] = tested on: HCT-116 colon
[52] = tested on: EKVX NSCLC
[53] = tested on: HCT-15 colon
[54] = tested on: RPMI-8226 leukemia
[55] = tested on: COLO 205 colon
[56] = tested on: BT-549 breast
[57] = tested on: HCC-2998 colon
[58] = tested on: SNB-19 CNS

C#Cc1cccc(NC(=O)c2cccc(NC(=O)CCl)c2)c1
GI50 [1]: 19.8 µM
TGI [1]: 59.4 µM
GI50 [2]: 15.8 µM
TGI [2]: 33.9 µM
GI50 [3]: 21.6 µM
TGI [3]: > 82.5 µM
GI50 [4]: 14.2 µM
TGI [4]: 28.1 µM
GI50 [5]: 15.1 µM
TGI [5]: 28 µM
GI50 [6]: 29.2 µM
TGI [6]: > 82.5 µM
GI50 [7]: 5.79 µM
TGI [7]: 19.1 µM
GI50 [8]: 14.7 µM
TGI [8]: 34.6 µM
GI50 [9]: 5.49 µM
TGI [9]: 20 µM
GI50 [10]: 7.29 µM
TGI [10]: 54.5 µM
GI50 [11]: 15.8 µM
TGI [11]: 40.8 µM
GI50 [12]: 17.4 µM
TGI [12]: 76.2 µM
GI50 [13]: 56.4 µM
TGI [13]: > 82.5 µM
GI50 [14]: 13.4 µM
TGI [14]: 29.9 µM
GI50 [15]: 14.9 µM
TGI [15]: 49.1 µM
GI50 [16]: 31.5 µM
TGI [16]: > 82.5 µM
GI50 [17]: 13 µM
TGI [17]: 24.5 µM
GI50 [18]: 25.9 µM
TGI [18]: > 82.5 µM
GI50 [19]: 12.7 µM
TGI [19]: 33.4 µM
GI50 [20]: 12.7 µM
TGI [20]: 29.8 µM
GI50 [21]: 8.87 µM
TGI [21]: 21.7 µM
GI50 [22]: 27.8 µM
TGI [22]: > 82.5 µM
GI50 [23]: 12.1 µM
TGI [23]: 28.4 µM
GI50 [24]: 6.71 µM
TGI [24]: 61.2 µM
GI50 [25]: 43.1 µM
TGI [25]: > 82.5 µM
GI50 [26]: 8.18 µM
TGI [26]: 33.4 µM
GI50 [27]: 14.2 µM
TGI [27]: 29.4 µM
GI50 [28]: 32.2 µM
TGI [28]: > 82.5 µM
GI50 [29]: 17.4 µM
TGI [29]: 60.6 µM
GI50 [30]: 26.9 µM
TGI [30]: > 82.5 µM
GI50 [31]: 30.2 µM
TGI [31]: > 82.5 µM
GI50 [32]: 4.55 µM
TGI [32]: 17 µM
GI50 [33]: 16 µM
TGI [33]: 37.2 µM
GI50 [34]: 23 µM
TGI [34]: > 82.5 µM
GI50 [35]: 15.7 µM
TGI [35]: 41.5 µM
GI50 [36]: 17.5 µM
TGI [36]: > 82.5 µM
GI50 [37]: 18.9 µM
TGI [37]: 70.7 µM
GI50 [38]: 12 µM
TGI [38]: 22.9 µM
GI50 [39]: 4.79 µM
TGI [39]: 43.1 µM
GI50 [40]: 15.2 µM
TGI [40]: 42.9 µM
GI50 [41]: 62.8 µM
TGI [41]: > 82.5 µM
GI50 [42]: 32.3 µM
TGI [42]: > 82.5 µM
GI50 [43]: 6.14 µM
TGI [43]: > 82.5 µM
GI50 [44]: 17.3 µM
TGI [44]: 53.1 µM
GI50 [45]: 54.7 µM
TGI [45]: > 82.5 µM
GI50 [46]: 51.1 µM
TGI [46]: > 82.5 µM
GI50 [47]: 12.3 µM
TGI [47]: 75.5 µM
GI50 [48]: 7.74 µM
TGI [48]: > 82.5 µM
GI50 [49]: 13.2 µM
TGI [49]: 39.7 µM
GI50 [50]: 12.8 µM
TGI [50]: > 82.5 µM
GI50 [51]: 7.98 µM
TGI [51]: 44.6 µM
GI50 [52]: 27.2 µM
TGI [52]: > 82.5 µM
GI50 [53]: 5.2 µM
TGI [53]: 19.1 µM
GI50 [54]: 17.3 µM
TGI [54]: 59.3 µM
GI50 [55]: 22 µM
TGI [55]: > 82.5 µM
GI50 [56]: 17.8 µM
TGI [56]: 70.4 µM
GI50 [57]: 29.8 µM
TGI [57]: > 82.5 µM
GI50 [58]: 31.1 µM
TGI [58]: > 82.5 µM
